Assay results from patent US20240190890A1, “MK2 INHIBITORS AND USES THEREOF” (Bristol-Myers Squibb Company, priority 2022, published 2024).

Molecular target: p38a activated, mitogen-activated protein kinase-activated protein kinase 2 (MAPKAP-K2 or MK2) enzyme (Homo sapiens (Human), UniProt P49137)
Assay: MK2 Omnia continuous-read kinase assay for compound potency
Format: biochemical
Conditions: [MK-2]=0.4 nM, [ATP]=10 μM, [ST3-Sox]=10 μM; room temperature
Source text: Mitogen-Activated Protein Kinase-Activated Protein Kinase 2 Omnia® Assay for Compound Potency Assessment:
The protocol below describes a continuous-read kinase assay optimized to measure potency of compounds against p38a activated, mitogen-activated protein kinase-activated protein kinase 2 (MAPKAP-K2 or MK2) enzyme. Further details of this assay are described by Life Technologies, Carlsbad, CA on their website at the following URL: http://tools.lifetechnologies.com/content/sfs/manuals/omnia_kinase_assay_man.pdf. • [Reagent] used: • [MK-2]=0.4 nM, • [ATP]=10 μM and • [ST3-Sox]=10 μM (ATP^appKM=10 μM)
Briefly, 10× stock solutions of MK2 (PV3317, from Life Technologies), 1.13X ATP (AS001A), and Sox conjugated peptide substrate, S/T3-Sox, (KZN1031) were prepared in 1× kinase reaction buffer consisting of 20 mM Tris, pH 7.5, 5 mM MgCl2, 1 mM EGTA, 5 mM β-glycerophosphate, 5% glycerol (10× stock, KB001A) and 0.2 mM DTT (DS001A). Enzyme solution (5 μL) was added to each of DMSO ([…]) or serially diluted test compounds prepared in DMSO in a Corning (#3574) 384-well, white, non-binding surface microtiter plate (Corning, NY). Kinase reactions were started with the addition of 45 μL of the ATP-peptide substrate S/T3-Sox mix and monitored every 71 seconds for 120 minutes at λex360/λem485 in a Synergy H4 plate reader from BioTek (Winooski, VT) at room temperature.
Background signals from the no enzyme control wells were subtracted from all progress curves. The initial linear portions of the net progress curves were fit according to a linear equation to yield the slope and percentage of inhibition (% inhibition) at each compound concentration. The net progress curves obtained during the first two hours of reactions were also fit according to an ascending single-exponential equation (Eq. 1) to yield kobs values at each compound concentration. Plots of % Inhibition versus inhibitor concentrations were fit according to a dose-response equation (Eq. 2) to generate IC50 and Hill slope values while plots of kobs versus inhibitor concentration were fit according to Equation 3 (Eq. 3) to generate apparent kinact/K1 values using the GraphPad PRISM software (Version 6.00; GraphPad San Diego, CA).
where F is the fluorescence intensity from the plate reader, V0 is a constant reflecting the relationship between the instrument readout and product concentration, t is time, e is Euler's number, and kobs is the observed inactivation rate constant.
where % Inhibition is percentage of inhibition, IC50 is half maximal inhibitory concentration, [I] is the inhibitor concentration, and n is the Hill slope.
where kobs is the observed inactivation rate constant, kinact is the apparent inactivation rate constant, K1 is the apparent inhibition constant, and [I] is the inhibitor concentration. […] Potency results for the compounds tested are shown in Table 4 in the column entitled “MK2 IC50.”

Chain of p38a activated, mitogen-activated protein kinase-activated protein kinase 2 (MAPKAP-K2 or MK2) enzyme (P49137 whole entry): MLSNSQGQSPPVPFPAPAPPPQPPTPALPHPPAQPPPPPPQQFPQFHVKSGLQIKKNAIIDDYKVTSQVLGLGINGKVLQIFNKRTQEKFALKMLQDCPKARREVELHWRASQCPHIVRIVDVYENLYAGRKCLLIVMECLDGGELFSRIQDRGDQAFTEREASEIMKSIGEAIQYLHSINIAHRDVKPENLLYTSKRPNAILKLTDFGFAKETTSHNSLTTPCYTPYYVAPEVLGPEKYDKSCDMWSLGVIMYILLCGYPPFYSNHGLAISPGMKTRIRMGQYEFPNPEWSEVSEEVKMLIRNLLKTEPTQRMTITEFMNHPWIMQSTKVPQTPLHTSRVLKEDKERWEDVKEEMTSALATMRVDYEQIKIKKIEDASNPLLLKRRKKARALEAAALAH

| IC50 [nM] | SMILES |
| --- | --- |
| 289 | C=Cc1nc2c(c(-c3ccc4c(ccc5sc6c(c54)NC[C@@H](C)NC6=O)n3)n1)CN(C)CC2 [Example I-191, (R)-10-methyl-3-(6-methyl-2-vinyl-5,6,7,8-tetrahydropyrido[4,3-d]pyrimidin-4-yl)-9,10,11,12-tetrahydro-8H-[1,4]diazepino[5′,6′:4,5]thieno[3,2-f]quinolin-8-one] |
| 1 | C=Cc1cc(-c2ccc3c(ccc4sc5c(c43)NC[C@@H](C)NC5=O)n2)ccn1 [Example I-55, (R)-10-methyl-3-(2-vinylpyridin-4-yl)-9,10,11,12-tetrahydro-8H-[1,4]diazepino[5′,6′:4,5]thieno[3,2-f]quinolin-8-one] |
| 50 | C=Cc1cc(-c2ccc3c(ccc4sc5c(c43)NC[C@@H](C)NC5=O)n2)c(OC)nn1 [Example I-127, (R)-3-(3-methoxy-6-vinylpyridazin-4-yl)-10-methyl-9,10,11,12-tetrahydro-8H-[1,4]diazepino[5′,6′:4,5]thieno[3,2-f]quinolin-8-one] |
| 283 | C[C@@H]1CNc2c(sc3ccc4nc(-c5cc(CN6CCN(C)CC6)nc(Cl)n5)ccc4c23)C(=O)N1 [Example I-87, (R)-3-(2-chloro-6-((4-methylpiperazin-1-yl)methyl)pyrimidin-4-yl)-10-methyl-9,10,11,12-tetrahydro-8H-[1,4]diazepino[5′,6′:4,5]thieno[3,2-f]quinolin-8-one] |
| 11 | C=Cc1cc(-c2ccc3c(ccc4sc5c(c43)NC[C@@H](C)NC5=O)n2)cc(N2CCC2)n1 [Example I-179, (R)-3-(2-(azetidin-1-yl)-6-vinylpyridin-4-yl)-10-methyl-9,10,11,12-tetrahydro-8H-[1,4]diazepino[5′,6′:4,5]thieno[3,2-f]quinolin-8-one] |
| 214 | C#Cc1cc(-c2ccc3c(ccc4sc5c(c43)NC[C@@H](C)NC5=O)n2)cc(N2CCOCC2)n1 [Example I-157, (R)-3-(2-ethynyl-6-morpholinopyridin-4-yl)-10-methyl-9,10,11,12-tetrahydro-8H-[1,4]diazepino[5′,6′:4,5]thieno[3,2-f]quinolin-8-one] |
| 23 | C[C@@H]1CNc2c(sc3ccc4nc(-c5cnc(Cl)[nH]5)ccc4c23)C(=O)N1 [Example I-151, (R)-3-(2-chloro-1H-imidazol-5-yl)-10-methyl-9,10,11,12-tetrahydro-8H-[1,4]diazepino[5′,6′:4,5]thieno[3,2-f]quinolin-8-one] |
| 39 | C#Cc1cc(-c2ccc3c(ccc4sc5c(c43)NC[C@@H](C)NC5=O)n2)c(F)cn1 [Example I-71, (R)-3-(2-ethynyl-5-fluoropyridin-4-yl)-10-methyl-9,10,11,12-tetrahydro-8H-[1,4]diazepino[5′,6′:4,5]thieno[3,2-f]quinolin-8-one] |
| 260 | C=Cc1cc(-c2ccc3c(ccc4sc5c(c43)NC[C@@H](C)NC5=O)n2)cc(N2CCC(F)(F)CC2)n1 [Example I-168, (R)-3-(2-(4,4-difluoropiperidin-1-yl)-6-vinylpyridin-4-yl)-10-methyl-9,10,11,12-tetrahydro-8H-[1,4]diazepino[5′,6′:4,5]thieno[3,2-f]quinolin-8-one] |
| 210 | C/C=C/c1cc(-c2ccc3c(ccc4sc5c(c43)NC[C@@H](C)NC5=O)n2)c(C)cn1 [Example I-265, (R,E)-10-methyl-3-(5-methyl-2-(prop-1-en-1-yl)pyridin-4-yl)-9,10,11,12-tetrahydro-8H-[1,4]diazepino[5′,6′:4,5]thieno[3,2-f]quinolin-8-one] |
| 2 | C=Cc1cc(-c2ccc3c(ccc4sc5c(c43)NC[C@@H](C)NC5=O)n2)nc(COCC)n1 [Example I-22, (R)-3-(2-(ethoxymethyl)-6-vinylpyrimidin-4-yl)-10-methyl-9,10,11,12-tetrahydro-8H-[1,4]diazepino[5′,6′:4,5]thieno[3,2-f]quinolin-8-one] |
| 26 | C#Cc1nc(CN2CCN(C)CC2)cc(-c2ccc3c(ccc4sc5c(c43)NC[C@@H](C)NC5=O)n2)n1 [Example I-89, (R)-3-(2-ethynyl-6-((4-methylpiperazin-1-yl)methyl)pyrimidin-4-yl)-10-methyl-9,10,11,12-tetrahydro-8H-[1,4]diazepino[5′,6′:4,5]thieno[3,2-f]quinolin-8-one] |
| 125 | C#Cc1cc(-c2ccc3c(ccc4sc5c(c43)NC[C@@H](C)NC5=O)n2)cc(CN2CCC(F)(F)CC2)n1 [Example I-124, (R)-3-(2-((4,4-difluoropiperidin-1-yl)methyl)-6-ethynylpyridin-4-yl)-10-methyl-9,10,11,12-tetrahydro-8H-[1,4]diazepino[5′,6′:4,5]thieno[3,2-f]quinolin-8-one] |
| 117 | C#Cc1cc(-c2ccc3c(ccc4sc5c(c43)NC[C@@H](C)NC5=O)n2)ccn1 [Example I-57, (R)-3-(2-ethynylpyridin-4-yl)-10-methyl-9,10,11,12-tetrahydro-8H-[1,4]diazepino[5′,6′:4,5]thieno[3,2-f]quinolin-8-one] |
| 79 | C#Cc1nccc(-c2ccc3c(ccc4sc5c(c43)NC[C@@H](C)NC5=O)n2)c1F [Example I-218, (R)-3-(2-ethynyl-3-fluoropyridin-4-yl)-10-methyl-9,10,11,12-tetrahydro-8H-[1,4]diazepino[5′,6′:4,5]thieno[3,2-f]quinolin-8-one] |
| 14 | C=Cc1cc(-c2ccc3c(ccc4sc5c(c43)NC[C@@H](C)NC5=O)n2)cc(CN2CCOCC2)n1 [Example I-140, (R)-10-methyl-3-(2-(morpholinomethyl)-6-vinylpyridin-4-yl)-9,10,11,12-tetrahydro-8H-[1,4]diazepino[5′,6′:4,5]thieno[3,2-f]quinolin-8-one] |
| 19 | C=C(c1cncc(-c2ccc3c(ccc4sc5c(c43)NC[C@@H](C)NC5=O)n2)n1)C(F)(F)F [Example I-225, (R)-10-methyl-3-(6-(3,3,3-trifluoroprop-1-en-2-yl)pyrazin-2-yl)-9,10,11,12-tetrahydro-8H-[1,4]diazepino[5′,6′:4,5]thieno[3,2-f]quinolin-8-one] |
| 2 | C[C@@H]1CNc2c(sc3ccc4nc(-c5cc(Cl)ncn5)ccc4c23)C(=O)N1 [Example I-11, (R)-3-(6-chloropyrimidin-4-yl)-10-methyl-9,10,11,12-tetrahydro-8H-[1,4]diazepino[5′,6′:4,5]thieno[3,2-f]quinolin-8-one] |
| 96 | C=C(CN1CCOCC1)c1cc(-c2ccc3c(ccc4sc5c(c43)NC[C@@H](C)NC5=O)n2)c(OC)nn1 [Example I-138, (R)-3-(3-methoxy-6-(3-morpholinoprop-1-en-2-yl)pyridazin-4-yl)-10-methyl-9,10,11,12-tetrahydro-8H-[1,4]diazepino[5′,6′:4,5]thieno[3,2-f]quinolin-8-one] |
| 23 | C#Cc1nc(CO)cc(-c2ccc3c(ccc4sc5c(c43)NC[C@@H](C)NC5=O)n2)n1 [Example I-86, (R)-3-(2-ethynyl-6-(hydroxymethyl)pyrimidin-4-yl)-10-methyl-9,10,11,12-tetrahydro-8H-[1,4]diazepino[5′,6′:4,5]thieno[3,2-f]quinolin-8-one] |
| 13 | [2H]C([2H])([2H])N1CCN(c2cc(-c3ccc4c(ccc5sc6c(c54)NC[C@@H](C)NC6=O)n3)cc(C=C)n2)CC1 [Example I-171, (R)-10-methyl-3-(2-(4-(methyl-d3)piperazin-1-yl)-6-vinylpyridin-4-yl)-9,10,11,12-tetrahydro-8H-[1,4]diazepino[5′,6′:4,5]thieno[3,2-f]quinolin-8-one] |
| 1000 | C=Cc1cc(C(F)(F)F)nn1-c1ccc2c(ccc3sc4c(c32)NC[C@@H](C)NC4=O)n1 [Example I-241, (R)-10-methyl-3-(3-(trifluoromethyl)-5-vinyl-1H-pyrazol-1-yl)-9,10,11,12-tetrahydro-8H-[1,4]diazepino[5′,6′:4,5]thieno[3,2-f]quinolin-8-one] |
| 77 | C=Cc1nn(C)nc1-c1ccc2c(ccc3sc4c(c32)NC[C@@H](C)NC4=O)n1 [Example I-232, (R)-10-methyl-3-(2-methyl-5-vinyl-2H-1,2,3-triazol-4-yl)-9,10,11,12-tetrahydro-8H-[1,4]diazepino[5′,6′:4,5]thieno[3,2-f]quinolin-8-one] |
